Results reported in US20120225062A1 (priority 2011, published 2012).

Key:
[1] = system: KMS11 (human myeloma cell line); assay: Cell Proliferation Assay (CellTiter-Glo, 3 days); format: cell-based; details: KMS-11, 72 h, KMS11-luc cells
How it was run: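 EC50 from CellTiter-Glo luminescence after 3-day, 37° C compound treatment of KMS11 cells seeded at 2000 per well in IMDM plus 10% FBS.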

Pim 2 = Pim 2 (Homo sapiens, UniProt Q9P1W9); assay: Pim 2 AlphaScreen assay (high ATP)
Experimental: The activity of Pim 1, Pim 2, & Pim 3 is measured using a homogeneous bead based system quantifying the amount of phosphorylated peptide substrate resulting from kinase-catalyzed phosphoryl transfer to a peptide substrate. Compounds to be tested are dissolved in 100% DMSO and directly distributed to a white 384-well plate at 0.25 μl per well. […] This is followed by the addition of 5 μl/well of Pim 1, Pim 2 or Pim 3 kinase in assay buffer (concentrations described below). Final assay concentrations (described below) are in 2.5% DMSO. The reactions are performed for ˜2 hours, then stopped by the addition of 10 μl of 0.75 μg/ml anti-phospho Ser/Thr antibody (Cell Signaling), 10 μg/ml Protein A AlphaScreen beads (Perkin Elmer), and 10 μg/ml streptavidin coated AlphaScreen beads in stop/detection buffer (50 mM EDTA, 95 mM Tris, pH=7.5, 0.01% Tween-20). The stopped reactions are incubated overnight in the dark. The phosphorylated peptide is detected via an oxygen anion initiated chemiluminescence/fluorescence cascade using the Envision plate reader (Perkin Elmer).

Pim 1 = Pim 1 (Homo sapiens, UniProt P11309); assay: Pim 1 AlphaScreen assay (high ATP)
Pim 3 = Pim 3 (Homo sapiens, UniProt Q86V86); assay: Pim 3 AlphaScreen assay (high ATP)

Chain of Pim 2 (Q9P1W9 whole entry): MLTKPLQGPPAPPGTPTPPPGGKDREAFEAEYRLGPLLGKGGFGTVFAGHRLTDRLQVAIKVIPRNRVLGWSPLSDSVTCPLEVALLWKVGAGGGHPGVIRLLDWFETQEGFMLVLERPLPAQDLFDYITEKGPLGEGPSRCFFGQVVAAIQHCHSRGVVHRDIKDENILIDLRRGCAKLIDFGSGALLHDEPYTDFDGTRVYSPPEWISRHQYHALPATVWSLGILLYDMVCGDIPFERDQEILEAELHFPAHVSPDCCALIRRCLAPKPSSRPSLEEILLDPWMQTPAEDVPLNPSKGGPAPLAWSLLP
Chain of Pim 1 (P11309 whole entry): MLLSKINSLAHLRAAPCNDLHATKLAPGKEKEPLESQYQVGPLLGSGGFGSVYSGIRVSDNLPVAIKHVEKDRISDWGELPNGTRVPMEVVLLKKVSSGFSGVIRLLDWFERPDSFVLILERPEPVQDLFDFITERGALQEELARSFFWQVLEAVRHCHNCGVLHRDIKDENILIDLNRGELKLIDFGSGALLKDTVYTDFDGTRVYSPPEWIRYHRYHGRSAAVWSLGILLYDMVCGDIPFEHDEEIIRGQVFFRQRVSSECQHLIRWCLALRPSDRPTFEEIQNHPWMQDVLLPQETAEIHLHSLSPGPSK

Structure (SMILES)	EC50 [1] [nM]	IC50 (Pim 2) [nM]	IC50 (Pim 1) [nM]	IC50 (Pim 3) [nM]
COC(=O)c1cc(F)c(-c2nc(C(=O)Nc3cnccc3N3C[C@@H](N)[C@H](O)[C@@H](C)C3)ccc2F)c(F)c1 [Example 215, methyl 4-(6-((4-((3R,4R,5S)-3-amino-4-hydroxy-5-methylpiperidin-1-yl)pyridin-3-yl)carbamoyl)-3-fluoropyridin-2-yl)-3,5-difluorobenzoate]	36	2.54	0.06	0.88
Cc1cc(F)c(-c2nc(C(=O)Nc3cnccc3N3C[C@@H](N)[C@H](O)[C@@H](C)C3)ccc2F)c(F)c1 [Example 37, N-(4-((3R,4R,5S)-3-amino-4-hydroxy-5-methylpiperidin-1-yl)pyridin-3-yl)-6-(2,6-difluoro-4-methylphenyl)-5-fluoropicolinamide]	13	0.94	0.02	0.28
COc1ccc(F)c(-c2nc(C(=O)Nc3cnccc3[C@@H]3C[C@H](C)C[C@H](N)C3)ccc2F)c1F [Example 212, N-(4-((1R,3S,5S)-3-amino-5-methylcyclohexyl)pyridin-3-yl)-6-(2,6-difluoro-3-methoxyphenyl)-5-fluoropicolinamide]	50	3.77	0.03	1.03
C[C@@H]1C[C@H](N)C[C@H](c2ccncc2NC(=O)c2ccc(F)c(-c3c(F)cc(C4(O)CCCC4)cc3F)n2)C1 [Example 163, N-(4-((1R,3S,5S)-3-amino-5-methylcyclohexyl)pyridin-3-yl)-6-(2,6-difluoro-4-(1-hydroxycyclopentyl)phenyl)-5-fluoropicolinamide]	33	0.93	0.01	0.17
C[C@@H]1C[C@H](N)C[C@H](c2ccncc2NC(=O)c2ccc(F)c(-c3c(F)cc(O[C@@H]4CCCOC4)cc3F)n2)C1 [Example 77, N-(4-((1R,3S,5S)-3-amino-5-methylcyclohexyl)pyridin-3-yl)-6-(2,6-difluoro-4-((R)-tetrahydro-2H-pyran-3-yloxy)phenyl)-5-fluoropicolinamide]	48	1.84	0.02	1.12
C[C@@H]1C[C@H](N)C[C@H](c2ccncc2NC(=O)c2ccc(F)c(-c3c(F)cc(CC(C)(C)O)cc3F)n2)C1 [Example 84, N-(4-((1R,3S,5S)-3-amino-5-methylcyclohexyl)pyridin-3-yl)-6-(2,6-difluoro-4-(2-hydroxy-2-methylpropyl)phenyl)-5-fluoropicolinamide]	29	1.48	0.02	0.52
C[C@H]1C[C@@H](c2ccncc2NC(=O)c2ccc(F)c(-c3c(F)cc(O[C@H]4CCCOC4)cc3F)n2)C[C@@H](N)[C@@H]1O [Example 80, N-(4-((1R,3R,4R,5S)-3-amino-4-hydroxy-5-methylcyclohexyl)pyridin-3-yl)-6-(2,6-difluoro-4-((S)-tetrahydro-2H-pyran-3-yloxy)phenyl)-5-fluoropicolinamide]	24	2.16	0.02	0.58
C[C@H]1C[C@@H](c2ccncc2NC(=O)c2ccc(F)c(-c3c(F)cc(N4CCOCC4)cc3F)n2)C[C@@H](N)[C@@H]1O [Example 169, N-(4-((1R,3R,4R,5S)-3-amino-4-hydroxy-5-methylcyclohexyl)pyridin-3-yl)-6-(2,6-difluoro-4-morpholinophenyl)-5-fluoropicolinamide]	34	1.16	0.01	0.38
C[C@@H]1C[C@H](N)C[C@H](c2ccncc2NC(=O)c2ccc(F)c(-c3c(F)cc(C4(O)CC4)cc3F)n2)C1 [Example 44, N-(4-((1R,3S,5S)-3-amino-5-methylcyclohexyl)pyridin-3-yl)-6-(2,6-difluoro-4-(1-hydroxycyclopropyl)phenyl)-5-fluoropicolinamide]	18	2.03	0.01	0.77
C[C@H]1CN(c2ccncc2NC(=O)c2ccc(F)c(-c3c(F)cc(C4(O)CC4)cc3F)n2)C[C@@H](N)[C@@H]1O [Example 103, N-(4-((3R,4R,5S)-3-amino-4-hydroxy-5-methylpiperidin-1-yl)pyridin-3-yl)-6-(2,6-difluoro-4-(1-hydroxycyclopropyl)phenyl)-5-fluoropicolinamide]	21	0.68	0.02	0.37
COCCOc1ccc(F)c(-c2nc(C(=O)Nc3cnccc3[C@@H]3C[C@H](C)C[C@H](N)C3)ccc2F)c1F [Example 13, N-(4-((1R,3S,5S)-3-amino-5-methylcyclohexyl)pyridin-3-yl)-6-(2,6-difluoro-3-(2-methoxyethoxy)phenyl)-5-fluoropicolinamide]	187	9.36	0.04	1.27
COC1(c2cc(F)c(-c3nc(C(=O)Nc4cnccc4[C@@H]4C[C@H](C)C[C@H](N)C4)ccc3F)c(F)c2)COC1 [Example 53, N-(4-((1R,3S,5S)-3-amino-5-methylcyclohexyl)pyridin-3-yl)-6-(2,6-difluoro-4-(3-methoxyoxetan-3-yl)phenyl)-5-fluoropicolinamide]	32	2.56	0.05	4.05
COCCOc1ccc(F)c(-c2nc(C(=O)Nc3cnccc3[C@H]3C[C@@H](N)[C@H](O)[C@@H](C)C3)ccc2F)c1F [Example 18, N-(4-((1R,3R,4R,5S)-3-amino-4-hydroxy-5-methylcyclohexyl)pyridin-3-yl)-6-(2,6-difluoro-3-(2-methoxyethoxy)phenyl)-5-fluoropicolinamide]	201	32.3	0.13	2.93
C[C@H]1C[C@@H](c2ccncc2NC(=O)c2ccc(F)c(-c3c(F)cc(C4CCS(=O)(=O)CC4)cc3F)n2)C[C@@H](N)[C@@H]1O [Example 203, N-(4-((1R,3R,4R,5S)-3-amino-4-hydroxy-5-methylcyclohexyl)pyridin-3-yl)-6-(4-(1,1-dioxidotetrahydro-2H-thiopyran-4-yl)-2,6-difluorophenyl)-5-fluoropicolinamide]	1490	1.18	0.02	0.59
C[C@H]1C[C@@H](c2ccncc2NC(=O)c2ccc(F)c(-c3c(F)cc(C4CCOCC4)cc3F)n2)C[C@@H](N)[C@@H]1O [Example 94, N-(4-((1R,3R,4R,5S)-3-amino-4-hydroxy-5-methylcyclohexyl)pyridin-3-yl)-6-(2,6-difluoro-4-(tetrahydro-2H-pyran-4-yl)phenyl)-5-fluoropicolinamide]	24	1.29	0.01	0.39
C[C@@H]1C[C@H](N)C[C@H](c2ccncc2NC(=O)c2ccc(F)c(-c3c(F)cc(OCCO)cc3F)n2)C1 [Example 229, N-(4-((1R,3S,5S)-3-amino-5-methylcyclohexyl)pyridin-3-yl)-6-(2,6-difluoro-4-(2-hydroxyethoxy)phenyl)-5-fluoropicolinamide]	26	2.58	0.03	0.82
C[C@@H]1C[C@H](N)C[C@H](c2ccncc2NC(=O)c2ccc(F)c(-c3c(F)cc([S@@+](C)[O-])cc3F)n2)C1 [Example 228, N-(4-((1R,3S,5S)-3-amino-5-methylcyclohexyl)pyridin-3-yl)-6-(2,6-difluoro-4-((R)-methylsulfinyl)phenyl)-5-fluoropicolinamide]	94	6.26	0.14	7.85
COCCOc1cc(F)c(-c2nc(C(=O)Nc3cnccc3[C@H]3C[C@@H](N)[C@@H](O)[C@@H](C)C3)ccc2F)c(F)c1 [Example 124, N-(4-((1R,3R,4S,5S)-3-amino-4-hydroxy-5-methylcyclohexyl)pyridin-3-yl)-6-(2,6-difluoro-4-(2-methoxyethoxy)phenyl)-5-fluoropicolinamide]	119	7.18	0.06	1.72
C[C@H]1CN(c2ccncc2NC(=O)c2ccc(F)c(-c3c(F)cc(OCC4CCOCC4)cc3F)n2)C[C@@H](N)[C@@H]1O [Example 200, N-(4-((3R,4R,5S)-3-amino-4-hydroxy-5-methylpiperidin-1-yl)pyridin-3-yl)-6-(2,6-difluoro-4-((tetrahydro-2H-pyran-4-yl)methoxy)phenyl)-5-fluoropicolinamide]	82	0.56	0.01	0.19
C[C@H]1C[C@@H](c2ccncc2NC(=O)c2ccc(F)c(-c3c(F)cc(OC4COC4)cc3F)n2)C[C@@H](N)[C@@H]1O [Example 47, N-(4-((1R,3R,4R,5S)-3-amino-4-hydroxy-5-methylcyclohexyl)pyridin-3-yl)-6-(2,6-difluoro-4-(oxetan-3-yloxy)phenyl)-5-fluoropicolinamide]	97	6.33	0.04	1.32
CCC(=O)c1cc(F)c(-c2nc(C(=O)Nc3cnccc3N3C[C@@H](N)[C@H](O)[C@@H](C)C3)ccc2F)c(F)c1 [Example 104, N-(4-((3R,4R,5S)-3-amino-4-hydroxy-5-methylpiperidin-1-yl)pyridin-3-yl)-6-(2,6-difluoro-4-propionylphenyl)-5-fluoropicolinamide]	19	0.95	0.02	0.45
C[C@H]1C[C@@H](c2ccncc2NC(=O)c2ccc(F)c(-c3c(F)ccc(OCCO)c3F)n2)C[C@@H](N)[C@@H]1O [Example 30, N-(4-((1R,3R,4R,5S)-3-amino-4-hydroxy-5-methylcyclohexyl)pyridin-3-yl)-6-(2,6-difluoro-3-(2-hydroxyethoxy)phenyl)-5-fluoropicolinamide]	186	11.4	0.07	2.25
